These results are taken from US8119660B2, “Small-molecule inhibitors of the androgen receptor” (The Regents of the University of California, priority 2007, dated 2012).

For data set [1], the target named is T1, endogenous wild-type AR, LAPC4 cells (Homo sapiens, UniProt P10275).
T1 construct: that each express endogenous AR; endogenous in cells; host or cells: LAPC4
T1 sequence (P10275 1-920): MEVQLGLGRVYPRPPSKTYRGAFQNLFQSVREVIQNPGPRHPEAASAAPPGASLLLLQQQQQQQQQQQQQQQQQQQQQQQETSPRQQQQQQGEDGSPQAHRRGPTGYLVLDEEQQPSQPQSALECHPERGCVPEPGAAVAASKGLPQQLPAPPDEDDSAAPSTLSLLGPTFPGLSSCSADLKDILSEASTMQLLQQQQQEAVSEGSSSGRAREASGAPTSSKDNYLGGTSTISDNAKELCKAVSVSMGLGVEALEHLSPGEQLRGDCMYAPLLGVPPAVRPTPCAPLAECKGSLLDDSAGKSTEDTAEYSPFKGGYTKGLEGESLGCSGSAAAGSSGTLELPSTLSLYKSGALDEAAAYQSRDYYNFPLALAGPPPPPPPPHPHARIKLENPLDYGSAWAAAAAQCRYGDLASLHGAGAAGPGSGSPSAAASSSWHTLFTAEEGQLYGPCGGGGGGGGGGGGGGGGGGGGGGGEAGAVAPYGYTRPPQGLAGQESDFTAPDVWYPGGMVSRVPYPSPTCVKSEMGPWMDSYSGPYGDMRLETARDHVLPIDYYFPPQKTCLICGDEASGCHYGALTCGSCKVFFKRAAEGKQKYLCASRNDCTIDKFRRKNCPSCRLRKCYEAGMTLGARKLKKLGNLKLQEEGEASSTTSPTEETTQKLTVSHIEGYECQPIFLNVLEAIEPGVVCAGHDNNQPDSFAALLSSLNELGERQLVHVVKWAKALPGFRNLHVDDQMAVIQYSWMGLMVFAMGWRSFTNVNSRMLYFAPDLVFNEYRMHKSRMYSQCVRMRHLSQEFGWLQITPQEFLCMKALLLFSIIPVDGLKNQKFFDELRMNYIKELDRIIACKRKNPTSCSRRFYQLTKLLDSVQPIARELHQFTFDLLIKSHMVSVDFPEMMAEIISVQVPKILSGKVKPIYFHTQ
The experiment in a line: PSA-luciferase reporter assay in LAPC4 cells with DHT. The following applies: 3 nM DHT. It counts as cell-based. The protocol: Cells were transfected with two reporter plasmids, a PSA-luciferase construct (androgen responsive), and an SV40-renilla luciferase construct as an internal control. The following day, the cells were split and drugs added in the presence of 3 nM DHT. Luciferase production was measured the following day (Dual luciferase assay kit, Promega).
Synergism can be defined as a combination index of less than one, using the non-exclusive assumption described by Chou et al. (Chou, T. C. and P. Talalay, Quantitative analysis of dose-effect relationships: the combined effects of multiple drugs or enzyme inhibitors. Adv Enzyme Regul, 1984. 22: p. 27-55).

For another data set, the system named is LNCaP cells. In words: Cell proliferation (DNA content, DAPI), LNCaP. Type of data set: cell-based, human. The following applies: 3 nM DHT, seven days, PP 100 nM, HH 100 nM, BiC 1 μM, hydrochloride. The text has this: (§1) LN-AR cells were created by retroviral infection of a high-expressing AR vector into LNCaP cells, and proliferate independent of androgen in cell culture, unlike their parental line (Chen, C. D., et al., Molecular determinants of resistance to antiandrogen therapy. Nat Med, 2004. 10(1): p. 33-9). HEK293 cells were used as a control. Cells were transferred to charcoal-stripped media two days before they were split and plated in quadruplicate at a density of approximately 20,000 cells/well in 48-well plates. […] Media were changed every day, using a single preparation to ensure consistent compound concentrations. Proliferation was determined by measuring the DNA content of the cells in each well. Each day, the cells in four wells were fixed in 100% cold methanol, followed by staining for 5 min at RT with 0.2 ng/mL 4′,6-diamidino-2-phenylindole (DAPI) in PBS. The cells were washed once in PBS, then read on a fluorescence plate reader using 365/439 excitation/emission wavelengths. LAPC4 and LNCaP cells proliferated to a much greater degree in the presence of DHT, while LN-AR cells proliferated in the presence and absence of DHT.

Another data set has as its system LAPC4 cells. The experiment in a line: Cell proliferation (DNA content, DAPI), LAPC4. It counts as cell-based, human. Particulars: LAPC4, 3 nM DHT, seven days; PP 100 nM, HH 100 nM, BiC 1 μM.
Description: as §1

The subject of a further data set is HEK293 cells. The experiment in a line: Cell proliferation (DNA content, DAPI), HEK293 control. Type of data set: cell-based. The following applies: HEK293, seven days; PP 100 nM, HH 100 nM, BiC 1 μM.
Description: as §1

Data set [2] can be described thus: Pharmacokinetics in mice, drug levels by mass spectrometry. Type of data set: in vivo. The following applies: for concentration at […]: 0.25 hr.
Description: Serum samples were obtained at fixed time intervals, and the drug levels determined by mass spectrometry.

Molecules are shown by their SMILES. Entries after “also recorded” stand apart in the source; their conditions may differ. Counter-ions that a name gives are not always drawn.

Regarding `Cc1nccc2c1[nH]c1cc(O)ccc12` [HH, harmol hydrochloride], in data set [1], the concentration for half-maximal inhibition (IC50) was found to be 106 nM. For the same compound, the “Inhibition of cell growth” value was “inhibited significantly; also recorded: exhibited growth-inhibitory properties” in the data set on LNCaP cells and “not effective” in the data set on LAPC4 cells. Also, the “Non-specific growth inhibition of control cells” value with HEK293 cells is on record as “Neither compound exhibited non-specific growth inhibition”. The concentration at […] in data set [2] (FVB, mouse, plasma, mice, IP, 5 mg/kg single dose) stood at 32.3 ng/mL; in data set [2] (FVB, mouse, plasma, mice, PO, 5 mg/kg single dose), 6.7 ng/mL. The compound further yielded a concentration at 1 h in data set [2] (FVB, mouse, plasma, mice, IP, 5 mg/kg single dose, 1 hr) of 5 ng/mL. Further, the “Clearance / half-life in words” value in data set [2] (Wild-type FVB mice, single intraperitoneal injection) is “rapidly cleared”.
